Source: patent publication US8802597B2, “Herbicidal pyrimidines” (E I du Pont de Nemours and Company, priority 2003, dated 2014)
Read-outs that look alike come from different tables or passages of the source.

Tests used:
Type in all cases: in vivo
[1] = test system: lambsquarters (Chenopodium album); assay: Test B pre/postemergence; details: Chenopodium album; for pest or weed control at 125 g/ha: 125 g ai/ha; for pest or weed control at 500 g/ha: 500 g ai/ha
Procedure, shortened: (§1)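 Compounds in non-phytotoxic solvent with surfactant applied preemergence to planted seeds or postemergence to plants 2 to 18 cm tall (1- to 4-leaf stage). Greenhouse 13 to 15 days, then visual rating against controls on a 0 to 100 scale (100 = complete control).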

[2] = test system: Surinam grass (Brachiaria decumbens); assay: Test B pre/postemergence; details: Urochloa decumbens; for pest or weed control at 125 g/ha: 125 g ai/ha; for pest or weed control at 500 g/ha: 500 g ai/ha
Procedure, shortened: as §1

[3] = test system: morningglory (Ipomoea coccinea); assay: Test B pre/postemergence; details: Ipomoea; for pest or weed control at 125 g/ha: 125 g ai/ha; for pest or weed control at 500 g/ha: 500 g ai/ha
Procedure, shortened: as §1

[4] = test system: crabgrass (Digitaria sanguinalis); assay: Test B pre/postemergence; details: Digitaria sanguinalis; for pest or weed control at 125 g/ha: 125 g ai/ha; for pest or weed control at 500 g/ha: 500 g ai/ha
Procedure, shortened: as §1

[5] = test system: cocklebur (Xanthium strumarium); assay: Test B pre/postemergence; details: Xanthium strumarium; for pest or weed control at 125 g/ha: 125 g ai/ha; for pest or weed control at 500 g/ha: 500 g ai/ha
Procedure, shortened: as §1

[6] = test system: giant foxtail (Setaria faberii); assay: Test B pre/postemergence; details: Setaria faberi; for pest or weed control at 125 g/ha: 125 g ai/ha; for pest or weed control at 500 g/ha: 500 g ai/ha
Procedure, shortened: as §1

[7] = test system: pigweed (Amaranthus retroflexus); assay: Test B pre/postemergence; details: Amaranthus retroflexus; for pest or weed control at 125 g/ha: 125 g ai/ha; for pest or weed control at 500 g/ha: 500 g ai/ha
Procedure, shortened: as §1

[8] = test system: velvetleaf (Abutilon theophrasti); assay: Test B pre/postemergence; details: Abutilon theophrasti; for pest or weed control at 125 g/ha: 125 g ai/ha; for pest or weed control at 500 g/ha: 500 g ai/ha
Procedure, shortened: as §1

[9] = test system: wheat (Triticum aestivum); assay: Test B pre/postemergence; details: Triticum aestivum; for plant injury at 125 g/ha: 125 g ai/ha; for plant injury at 500 g/ha: 500 g ai/ha
Procedure, shortened: as §1

[10] = test system: barnyardgrass (Echinochloa crus-galli); assay: Test B pre/postemergence; details: Echinochloa crus-galli; for pest or weed control at 125 g/ha: 125 g ai/ha; for pest or weed control at 500 g/ha: 500 g ai/ha
Procedure, shortened: as §1

corn (Zea mays) = assay: Test B pre/postemergence; details: Zea mays
Procedure, shortened: as §1

wild oat (Avena fatua) = assay: Test B postemergence; details: Avena fatua, post-emergence
Procedure, shortened: as §1

[11] = test system: blackgrass (Alopecurus myosuroides); assay: Test B postemergence; details: Alopecurus myosuroides, post-emergence
Procedure, shortened: as §1

rice (Oryza sativa) = assay: Test B flooded paddy test; details: Oryza sativa, Flood, 1000 g ai/ha; scale 0 to 100; read-out: Plant response rating, Rice
Procedure, shortened: (§2)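 Rice, umbrella sedge, duck salad and barnyardgrass grown to 2-leaf stage under flooded paddy conditions and treated with formulated test chemicals. Kept in greenhouse 13–15 days, then visually rated against untreated controls on a 0–100 scale (0 no effect, 100 complete control).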

[12] = test system: umbrella sedge (Cyperus difformis); assay: Test B flooded paddy test; details: Cyperus difformis, Flood, 1000 g ai/ha; scale 0 to 100; read-out: Plant response rating, Sedge, Umbrella
Procedure, shortened: as §2

[13] = test system: duck salad (Heteranthera limosa); assay: Test B flooded paddy test; details: Heteranthera limosa, Flood, 1000 g ai/ha; scale 0 to 100; read-out: Plant response rating, Ducksalad
Procedure, shortened: as §2

[14] = test system: barnyardgrass (Echinochloa crus-galli); assay: Test B flooded paddy test; details: Echinochloa crus-galli, Flood, 1000 g ai/ha; scale 0 (no effect) to 100 (complete control); read-out: Plant response rating, Barnyardgrass
Procedure, shortened: as §2

COC(=O)c1nc(C(C)C)nc(N)c1Br [Compound 3]
80%: pest or weed control at 125 g/ha ([3]; post-emergence, Postemergence, scale 0 to 100 (0 no effect, 100 complete control), read-out: Morningglory plant response rating) | pest or weed control at 125 g/ha ([5]; pre-emergence, Preemergence, scale 0 to 100 (0 no effect, 100 complete control), read-out: Plant response rating, Cocklebur) | pest or weed control at 500 g/ha ([5]; pre-emergence, Preemergence, scale 0 to 100 (0 no effect, 100 complete control), read-out: Cocklebur plant response rating) | pest or weed control at 125 g/ha ([7]; post-emergence, Postemergence, scale 0 to 100 (0 no effect, 100 complete control), read-out: Pigweed plant response rating) | pest or weed control at 125 g/ha ([7]; pre-emergence, Preemergence, scale 0 to 100 (0 no effect, 100 complete control), read-out: Plant response rating, Pigweed) | pest or weed control at 500 g/ha ([8]; post-emergence, Postemergence, scale 0 to 100, read-out: Plant response rating, Velvetleaf)
10%: pest or weed control at 125 g/ha ([2]; post-emergence, Postemergence, scale 0 to 100 (0 no effect, 100 complete control), read-out: Surinam Grass plant response rating) | pest or weed control at 125 g/ha ([4]; pre-emergence, Preemergence, scale 0 to 100 (0 no effect, 100 complete control), read-out: Plant response rating, Crabgrass) | plant injury at 125 g/ha ([9]; post-emergence, Postemergence, scale 0 to 100 (0 no effect, 100 complete control), read-out: Wheat plant response rating) | pest or weed control at 500 g/ha ([10]; post-emergence, Postemergence, scale 0 to 100, read-out: Plant response rating, Barnyardgrass) | pest or weed control at 125 g/ha (wild oat (Avena fatua); 125 g ai/ha, scale 0 to 100 (0 no effect, 100 complete control), read-out: Oat, Wild plant response rating)
100%: pest or weed control at 125 g/ha ([1]; post-emergence, Postemergence, scale 0 to 100 (0 no effect, 100 complete control), read-out: Lambsquarters plant response rating) | pest or weed control at 500 g/ha ([1]; post-emergence, Postemergence, scale 0 to 100, read-out: Plant response rating, Lambsquarters) | pest or weed control at 500 g/ha ([3]; post-emergence, Postemergence, scale 0 to 100, read-out: Plant response rating, Morningglory) | pest or weed control at 500 g/ha ([5]; post-emergence, Postemergence, scale 0 to 100, read-out: Plant response rating, Cocklebur)
90%: pest or weed control at 500 g/ha ([1]; pre-emergence, Preemergence, scale 0 to 100 (0 no effect, 100 complete control), read-out: Lambsquarters plant response rating) | pest or weed control at 500 g/ha ([7]; post-emergence, Postemergence, scale 0 to 100, read-out: Plant response rating, Pigweed) | pest or weed control at 500 g/ha ([7]; pre-emergence, Preemergence, scale 0 to 100 (0 no effect, 100 complete control), read-out: Pigweed plant response rating)
40%: pest or weed control at 500 g/ha ([4]; post-emergence, Postemergence, scale 0 to 100, read-out: Plant response rating, Crabgrass) | pest or weed control at 500 g/ha ([6]; post-emergence, Postemergence, scale 0 to 100, read-out: Plant response rating, Foxtail, Giant) | pest or weed control at 125 g/ha ([8]; pre-emergence, Preemergence, scale 0 to 100 (0 no effect, 100 complete control), read-out: Plant response rating, Velvetleaf)
60%: pest or weed control at 500 g/ha ([3]; pre-emergence, Preemergence, scale 0 to 100 (0 no effect, 100 complete control), read-out: Morningglory plant response rating)
70%: pest or weed control at 125 g/ha ([1]; pre-emergence, Preemergence, scale 0 to 100 (0 no effect, 100 complete control), read-out: Plant response rating, Lambsquarters) | pest or weed control at 125 g/ha ([5]; post-emergence, Postemergence, scale 0 to 100 (0 no effect, 100 complete control), read-out: Cocklebur plant response rating) | pest or weed control at 500 g/ha ([8]; pre-emergence, Preemergence, scale 0 to 100 (0 no effect, 100 complete control), read-out: Velvetleaf plant response rating)
20%: pest or weed control at 500 g/ha ([2]; pre-emergence, Preemergence, scale 0 to 100 (0 no effect, 100 complete control), read-out: Surinam Grass plant response rating) | pest or weed control at 125 g/ha ([6]; post-emergence, Postemergence, scale 0 to 100 (0 no effect, 100 complete control), read-out: Foxtail, Giant plant response rating) | plant injury at 500 g/ha ([9]; post-emergence, Postemergence, scale 0 to 100, read-out: Plant response rating, Wheat) | pest or weed control at 125 g/ha ([11]; 125 g ai/ha, scale 0 to 100 (0 no effect, 100 complete control), read-out: Blackgrass plant response rating)
0%: pest or weed control at 125 g/ha ([2]; pre-emergence, Preemergence, scale 0 to 100 (0 no effect, 100 complete control), read-out: Plant response rating, Surinam Grass) | pest or weed control at 125 g/ha ([6]; pre-emergence, Preemergence, scale 0 to 100 (0 no effect, 100 complete control), read-out: Plant response rating, Foxtail, Giant) | pest or weed control at 500 g/ha ([6]; pre-emergence, Preemergence, scale 0 to 100 (0 no effect, 100 complete control), read-out: Foxtail, Giant plant response rating) | plant injury at 125 g/ha ([9]; pre-emergence, Preemergence, scale 0 to 100 (0 no effect, 100 complete control), read-out: Plant response rating, Wheat) | plant injury at 500 g/ha ([9]; pre-emergence, Preemergence, scale 0 to 100 (0 no effect, 100 complete control), read-out: Wheat plant response rating) | pest or weed control at 125 g/ha ([10]; post-emergence, Postemergence, scale 0 to 100 (0 no effect, 100 complete control), read-out: Barnyardgrass plant response rating) | pest or weed control at 125 g/ha ([10]; pre-emergence, Preemergence, scale 0 to 100 (0 no effect, 100 complete control), read-out: Plant response rating, Barnyardgrass) | pest or weed control at 500 g/ha ([10]; pre-emergence, Preemergence, scale 0 to 100 (0 no effect, 100 complete control), read-out: Barnyardgrass plant response rating) | plant injury at 125 g/ha (corn (Zea mays); post-emergence, Postemergence, 125 g ai/ha, scale 0 to 100 (0 no effect, 100 complete control), read-out: Corn plant response rating) | Corn plant response rating (crop injury, 0 = no effect, 100 = complete kill) at 500 g/ha (corn (Zea mays); post-emergence, Postemergence, 500 g ai/ha, scale 0 to 100) | Corn plant response rating (crop injury, 0 = no effect, 100 = complete kill) at 125 g/ha (corn (Zea mays); pre-emergence, Preemergence, 125 g ai/ha, scale 0 to 100 (0 no effect, 100 complete control)) | plant injury at 500 g/ha (corn (Zea mays); pre-emergence, Preemergence, 500 g ai/ha, scale 0 to 100 (0 no effect, 100 complete control), read-out: Corn plant response rating) | plant injury at 1000 g/ha (rice (Oryza sativa)) | pest or weed control at 1000 g/ha [12] | pest or weed control at 1000 g/ha [13] | pest or weed control at 1000 g/ha [14]
50%: pest or weed control at 125 g/ha ([3]; pre-emergence, Preemergence, scale 0 to 100 (0 no effect, 100 complete control), read-out: Plant response rating, Morningglory) | pest or weed control at 500 g/ha ([4]; pre-emergence, Preemergence, scale 0 to 100 (0 no effect, 100 complete control), read-out: Crabgrass plant response rating) | pest or weed control at 125 g/ha ([8]; post-emergence, Postemergence, scale 0 to 100 (0 no effect, 100 complete control), read-out: Velvetleaf plant response rating) | pest or weed control at 500 g/ha ([11]; 500 g ai/ha, scale 0 to 100, read-out: Plant response rating, Blackgrass)
30%: pest or weed control at 500 g/ha ([2]; post-emergence, Postemergence, scale 0 to 100, read-out: Plant response rating, Surinam Grass) | pest or weed control at 125 g/ha ([4]; post-emergence, Postemergence, scale 0 to 100 (0 no effect, 100 complete control), read-out: Crabgrass plant response rating) | pest or weed control at 500 g/ha (wild oat (Avena fatua); 500 g ai/ha, scale 0 to 100, read-out: Plant response rating, Oat, Wild)
